The assay has as its target T1, human PAH with the R408W mutation (Homo sapiens, UniProt P00439, R408W).
T1 construct: expressed in transfected cells
T1 sequence (P00439 1-452 R408W): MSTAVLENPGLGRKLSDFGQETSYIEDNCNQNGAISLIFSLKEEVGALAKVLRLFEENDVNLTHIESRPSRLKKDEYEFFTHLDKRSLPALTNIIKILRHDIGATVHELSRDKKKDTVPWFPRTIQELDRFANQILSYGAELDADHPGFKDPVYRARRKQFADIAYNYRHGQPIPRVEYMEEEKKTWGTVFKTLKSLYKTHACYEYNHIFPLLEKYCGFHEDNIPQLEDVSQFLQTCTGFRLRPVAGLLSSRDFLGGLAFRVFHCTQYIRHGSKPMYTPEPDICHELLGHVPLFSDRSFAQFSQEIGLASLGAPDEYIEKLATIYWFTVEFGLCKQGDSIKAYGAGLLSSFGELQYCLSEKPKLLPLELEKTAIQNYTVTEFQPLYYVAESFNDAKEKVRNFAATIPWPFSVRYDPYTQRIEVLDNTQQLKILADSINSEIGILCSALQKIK
Put plainly: Cell Based Phenylalanine Flux Assay.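 Further: after compound treatment, cells received sepiapterin plus isotope-labelled Phenylalanine for 4 hours, then labelled Tyrosine in the medium was quantified, 10-point 2-fold dilution series run in duplicate.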 To be noted: A375 cells expressing human R408W PAH; 24 hrs compound incubation; 13C-Tyrosine by LC-MS; average where tested multiple times; read-out: AC50.

From patent US20230365592A1 (Agios Pharmaceuticals, Inc., priority 2022, published 2023) come the findings set out here.

One may read the AC50 as the midpoint of the concentration-response curve, whichever way the signal moves. With `Cn1cnc(-c2nc(C(F)F)c(C(=O)N3CCc4[nH]cnc4[C@H]3c3cc4c(F)cccn4n3)o2)c1` [Example 921, (S)-(4-(difluoromethyl)-2-(1-methyl-1H-imidazol-4-yl)oxazol-5-yl)(4-(4-fluoropyrazolo[1,5-a]pyridin-2-yl)-6,7-dihydro-1H-imidazo[4,5-c]pyridin-5(4H)-yl)methanone], the AC50 was below 500 nM. The same measure for `Cc1cccn2nc([C@@H]3c4nc[nH]c4CCN3C(=O)c3nnc(C(C)(C)F)o3)cc12` [Example 922, (S)-(5-(2-fluoropropan-2-yl)-1,3,4-oxadiazol-2-yl)(4-(4-methylpyrazolo[1,5-a]pyridin-2-yl)-6,7-dihydro-1H-imidazo[4,5-c]pyridin-5(4H)-yl)methanone]: below 500 nM; for `Cc1cccn2nc([C@H]3c4nc[nH]c4CCN3C(=O)c3nnc(C(C)(C)F)o3)cc12` [Example 923, (R)-(5-(2-fluoropropan-2-yl)-1,3,4-oxadiazol-2-yl)(4-(4-methylpyrazolo[1,5-a]pyridin-2-yl)-6,7-dihydro-1H-imidazo[4,5-c]pyridin-5(4H)-yl)methanone]: above 5000 nM. Turning to `Cc1cccn2nc([C@@H]3c4nc[nH]c4CCN3C(=O)c3nnc(C4CC4)o3)cc12` [Example 924, (S)-(5-cyclopropyl-1,3,4-oxadiazol-2-yl)(4-(4-methylpyrazolo[1,5-a]pyridin-2-yl)-6,7-dihydro-1H-imidazo[4,5-c]pyridin-5(4H)-yl)methanone], the AC50 was below 500 nM. In the case of `Cc1cnn(C)c1-c1nnc(C(=O)N2CCc3[nH]cnc3[C@H]2c2cc3c(C)cccn3n2)o1` [Example 926, (S)-(5-(1,4-dimethyl-1H-pyrazol-5-yl)-1,3,4-oxadiazol-2-yl)(4-(4-methylpyrazolo[1,5-a]pyridin-2-yl)-6,7-dihydro-1H-imidazo[4,5-c]pyridin-5(4H)-yl)methanone], the AC50 was below 500 nM. With `Cc1cnn(C)c1-c1nnc(C(=O)N2CCc3[nH]cnc3[C@@H]2c2cc3c(C)cccn3n2)o1` [Example 927, (R)-(5-(1,4-dimethyl-1H-pyrazol-5-yl)-1,3,4-oxadiazol-2-yl)(4-(4-methylpyrazolo[1,5-a]pyridin-2-yl)-6,7-dihydro-1H-imidazo[4,5-c]pyridin-5(4H)-yl)methanone], the AC50 is above 5000 nM. As for `Cc1cnn(C)c1-c1nnc(C(=O)N2CCc3[nH]cnc3[C@H]2c2cc3c(F)cccn3n2)o1` [Example 928, (S)-(5-(1,4-dimethyl-1H-pyrazol-5-yl)-1,3,4-oxadiazol-2-yl)(4-(4-fluoropyrazolo[1,5-a]pyridin-2-yl)-6,7-dihydro-1H-imidazo[4,5-c]pyridin-5(4H)-yl)methanone], the AC50 was below 500 nM. Consider `Cc1cnn(C)c1-c1nnc(C(=O)N2CCc3[nH]cnc3[C@@H]2c2cc3c(F)cccn3n2)o1` [Example 929, (R)-(5-(1,4-dimethyl-1H-pyrazol-5-yl)-1,3,4-oxadiazol-2-yl)(4-(4-fluoropyrazolo[1,5-a]pyridin-2-yl)-6,7-dihydro-1H-imidazo[4,5-c]pyridin-5(4H)-yl)methanone], for which the AC50 is above 5000 nM.

In the case of `Cc1cccn2nc([C@H]3c4nc[nH]c4CCN3C(=O)c3oc(-c4cn(C)cn4)nc3C(F)F)cc12` [Example 930, (R)-(4-(difluoromethyl)-2-(1-methyl-1H-imidazol-4-yl)oxazol-5-yl)(4-(4-methylpyrazolo[1,5-a]pyridin-2-yl)-6,7-dihydro-1H-imidazo[4,5-c]pyridin-5(4H)-yl)methanone], the AC50 is above 5000 nM. `Cc1cccn2nc([C@@H]3c4nc[nH]c4CCN3C(=O)c3oc(-c4cn(C)cn4)nc3C(F)F)cc12` [Example 931, (S)-(4-(difluoromethyl)-2-(1-methyl-1H-imidazol-4-yl)oxazol-5-yl)(4-(4-methylpyrazolo[1,5-a]pyridin-2-yl)-6,7-dihydro-1H-imidazo[4,5-c]pyridin-5(4H)-yl)methanone]: the AC50 was below 500 nM. For the compound `COc1ccc(-c2nnc(C(=O)N3CCc4[nH]cnc4[C@H]3c3cc4c(C(F)(F)F)cccn4n3)o2)nc1` [Example 932, (S)-(5-(5-methoxypyridin-2-yl)-1,3,4-oxadiazol-2-yl)(4-(4-(trifluoromethyl)pyrazolo[1,5-a]pyridin-2-yl)-6,7-dihydro-1H-imidazo[4,5-c]pyridin-5(4H)-yl)methanone], the AC50 is below 500 nM. As to `COc1ccc(-c2nnc(C(=O)N3CCc4[nH]cnc4[C@@H]3c3cc4c(C(F)(F)F)cccn4n3)o2)nc1` [Example 933, (R)-(5-(5-methoxypyridin-2-yl)-1,3,4-oxadiazol-2-yl)(4-(4-(trifluoromethyl)pyrazolo[1,5-a]pyridin-2-yl)-6,7-dihydro-1H-imidazo[4,5-c]pyridin-5(4H)-yl)methanone], the AC50 was above 5000 nM. Next, `Cn1cnc(-c2nnc(C(=O)N3CCc4[nH]cnc4[C@@H]3c3cc4c(C(F)(F)F)cccn4n3)o2)c1` [Example 935, (R)-(5-(1-methyl-1H-imidazol-4-yl)-1,3,4-oxadiazol-2-yl)(4-(4-(trifluoromethyl)pyrazolo[1,5-a]pyridin-2-yl)-6,7-dihydro-1H-imidazo[4,5-c]pyridin-5(4H)-yl)methanone]: above 5000 nM; `Cc1cccc2cc([C@@H]3c4nc[nH]c4CCN3C(=O)c3nnc(-c4ccn(C(F)F)n4)o3)nn12` [Example 936, (S)-(5-(1-(difluoromethyl)-1H-pyrazol-3-yl)-1,3,4-oxadiazol-2-yl)(4-(7-methylpyrazolo[1,5-a]pyridin-2-yl)-6,7-dihydro-1H-imidazo[4,5-c]pyridin-5(4H)-yl)methanone]: below 500 nM. Next, `Cc1cccc2cc([C@H]3c4nc[nH]c4CCN3C(=O)c3nnc(-c4ccn(C(F)F)n4)o3)nn12` [Example 937, (R)-(5-(1-(difluoromethyl)-1H-pyrazol-3-yl)-1,3,4-oxadiazol-2-yl)(4-(7-methylpyrazolo[1,5-a]pyridin-2-yl)-6,7-dihydro-1H-imidazo[4,5-c]pyridin-5(4H)-yl)methanone]: above 5000 nM; `Cc1cccc2cc([C@@H]3c4nc[nH]c4CCN3C(=O)c3nnc(C(C)(C)F)o3)nn12` [Example 938, (S)-(5-(2-fluoropropan-2-yl)-1,3,4-oxadiazol-2-yl)(4-(7-methylpyrazolo[1,5-a]pyridin-2-yl)-6,7-dihydro-1H-imidazo[4,5-c]pyridin-5(4H)-yl)methanone]: below 500 nM; `Cc1cccc2cc([C@@H]3c4nc[nH]c4CCN3C(=O)c3nnc(C4CC4)o3)nn12` [Example 940, (S)-(5-cyclopropyl-1,3,4-oxadiazol-2-yl)(4-(7-methylpyrazolo[1,5-a]pyridin-2-yl)-6,7-dihydro-1H-imidazo[4,5-c]pyridin-5(4H)-yl)methanone]: 500 to 1000 nM. On to `Cc1cccc2cc([C@H]3c4nc[nH]c4CCN3C(=O)c3nnc(C4CC4)o3)nn12` [Example 941, (R)-(5-cyclopropyl-1,3,4-oxadiazol-2-yl)(4-(7-methylpyrazolo[1,5-a]pyridin-2-yl)-6,7-dihydro-1H-imidazo[4,5-c]pyridin-5(4H)-yl)methanone], for which the AC50 is above 5000 nM.

On to `O=C(c1nnc(C2CC2)o1)N1CCc2[nH]cnc2[C@H]1c1cc2c(C(F)(F)F)cccn2n1` [Example 942, (S)-(5-cyclopropyl-1,3,4-oxadiazol-2-yl)(4-(4-(trifluoromethyl)pyrazolo[1,5-a]pyridin-2-yl)-6,7-dihydro-1H-imidazo[4,5-c]pyridin-5(4H)-yl)methanone], for which the AC50 is below 500 nM.
